Earlier results as cited in paper PMC10783161 (RSC Advances, 2024).

Conditions: biphasic elimination, slower terminal phase

- terminal phase half-life: 4 to 11 h
Compound: COc1cc([C@@H]2c3cc4c(cc3[C@@H](O[C@@H]3O[C@@H]5CO[C@@H](C)O[C@H]5[C@H](O)[C@H]3O)[C@H]3COC(=O)[C@H]23)OCO4)cc(OC)c1O [ETP, etoposide]
